Among the data in PubChem BioAssay AID328 (DTP/NCI, 2004) are T/C values, retold here.

The test system of this test is BDF1 mice, P388 leukemia ip, median survival T/C. The test is described as follows: NCI In Vivo Anticancer Drug Screen. Data for tumor model P388 Leukemia (intraperitoneal) in B6D2F1 (BDF1) mice. The settings on record: endpoint: median survival time, higher = longer survival. A digest of the protocol: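 Compound-treated tumour-bearing mice were compared with vehicle-treated controls. Survival was recorded, and the value is the treated-group measurement divided by the control-group measurement (T/C).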

The mark [1] stands for this setting: dose: 6.25 mg/kg/injection, schedule: Q04DX003 (ip), vehicle: water.
Where [2] appears, read: dose: 12.5 mg/kg/injection, schedule: Q04DX003 (ip), vehicle: water.
Where [3] appears, read: dose: 25.0 mg/kg/injection, schedule: Q04DX003 (ip), vehicle: water.
[4] abbreviates: dose: 100.0 mg/kg/injection, schedule: Q01DX009 (ip), vehicle: saline with Tween-80.
[5] abbreviates: dose: 100.0 mg/kg/injection, schedule: Q04DX003 (ip), vehicle: saline with Tween-80.
[6] abbreviates: dose: 200.0 mg/kg/injection, schedule: Q01DX009 (ip), vehicle: saline with Tween-80.
Setting [7] is: dose: 200.0 mg/kg/injection, schedule: Q04DX003 (ip), vehicle: saline with Tween-80.
Where [8] appears, read: dose: 400.0 mg/kg/injection, schedule: Q01DX009 (ip), vehicle: saline with Tween-80.
The mark [9] stands for this setting: dose: 400.0 mg/kg/injection, schedule: Q04DX003 (ip), vehicle: saline with Tween-80.
[10] abbreviates: dose: 50.0 mg/kg/injection, schedule: Q01DX009 (ip), vehicle: Klucel (hydroxypropylcellulose) (HPC).
Setting [11] is: dose: 100.0 mg/kg/injection, schedule: Q01DX009 (ip), vehicle: Klucel (hydroxypropylcellulose) (HPC).
Setting [12] is: dose: 25.0 mg/kg/injection, schedule: Q01DX009 (ip), vehicle: saline with Tween-80.
The mark [13] stands for this setting: dose: 50.0 mg/kg/injection, schedule: Q01DX009 (ip), vehicle: saline with Tween-80.
The mark [14] stands for this setting: dose: 50.0 mg/kg/injection, schedule: Q04DX003 (ip), vehicle: saline with Tween-80.

Where “and” joins values, the source holds several entries; their conditions need not be identical. Equal entries are not always repeated. Toxic doses and inconclusive results are not listed.

For the molecule `COc1cc2c(cc1OC)-c1c(C)c3ccc(OC)c(NCCN)c3c[n+]1CC2`, the T/C runs as follows: (dose: 3.12 mg/kg/injection, schedule: Q01DX005 (ip), vehicle: water) 100 % of control; (dose: 3.13 mg/kg/injection, schedule: Q04DX003 (ip), vehicle: water) 101 % of control; (dose: 6.25 mg/kg/injection, schedule: Q01DX005 (ip), vehicle: water) 97 % of control; under setting [1], 108 % of control; (dose: 12.5 mg/kg/injection, schedule: Q01DX005 (ip), vehicle: water) 100 % of control; under setting [2], 110 % of control. The T/C runs as follows: (dose: 25.0 mg/kg/injection, schedule: Q01DX005 (ip), vehicle: water) 98 % of control; under setting [3], 98 % of control and 120 % of control.
Regarding `CCCC(F)C(=O)OCC` (centres undefined), the T/C under setting [4] was 90 % of control; the T/C under setting [5] was 100 % of control; the T/C under setting [6] is 104 % of control; the T/C under setting [7] was 109 % of control; the T/C under setting [8] is 118 % of control; the T/C under setting [9] is 100 % of control.
For the molecule `COC(=O)C(N)CSCSCc1ccccc1` (centres undefined), the T/C under setting [1] was 109 % of control; the T/C under setting [2] is 113 % of control; the T/C under setting [3] was 104 % of control; the T/C (dose: 50.0 mg/kg/injection, schedule: Q04DX003 (ip), vehicle: water) is 100 % of control; the T/C (dose: 100.0 mg/kg/injection, schedule: Q04DX003 (ip), vehicle: water) was 100 % of control.
With `C(=Nc1ccc2c(c1)Cc1ccccc1-2)c1ccccc1`, the T/C was 90 % of control under setting [10]; 109 % of control under setting [11]; 100 % of control (dose: 200.0 mg/kg/injection, schedule: Q01DX009 (ip), vehicle: Klucel (hydroxypropylcellulose) (HPC)).
As for `O=c1[nH]c2c(ccc3cccnc32)c2c1CCC2`, the T/C was 92 % of control under setting [5] and 93 % of control under setting [9].
For the molecule `O=c1c(Cl)c2cc3c(cc2c2ccccc12)nc1ccccc1n3-c1ccccc1`, the T/C runs as follows: (dose: 12.5 mg/kg/injection, schedule: Q01DX001 (ip), vehicle: saline with Tween-80) 88 % of control; (dose: 25.0 mg/kg/injection, schedule: Q01DX001 (ip), vehicle: saline with Tween-80) 88 % of control.
Take `CCCNC(=S)NNC(=O)c1ccncc1`: the T/C reads like this: (dose: 6.25 mg/kg/injection, schedule: Q01DX009 (ip), vehicle: saline with Tween-80) 98 % of control; (dose: 12.5 mg/kg/injection, schedule: Q01DX009 (ip), vehicle: saline with Tween-80) 97 % of control; under setting [12], 100 % of control; under setting [13], 90 % of control; under setting [4], 100 % of control.
For `CC(=O)C1CCC2C3CCC4=CC(=O)CC4(C)C3CCC12C` (centres undefined), the T/C reads like this: under setting [13], 95 % of control; under setting [14], 104 % of control; under setting [4], 90 % of control and 100 % of control; under setting [5], 95 % of control and 104 % of control; under setting [6], 90 % of control and 95 % of control; under setting [7], 90 % of control and 95 % of control. In addition, the T/C is 86 % of control under setting [8] and 90 % of control under setting [9].
As for `C=C(C)C12CC(C)C34OC5(CCCCCCCC(C)C6C(C)C(OC(=O)c7ccccc7)C(O)(C(O)C7(COC(=O)CCCCCCCCCCCCCCC)OC7C3C1O5)C64)O2` (centres undefined), the T/C is, setting by setting: (dose: 0.6 micrograms/kg/injection, schedule: Q01DX009 (ip), vehicle: saline + alcohol) 104 % of control; (dose: 1.3 micrograms/kg/injection, schedule: Q01DX009 (ip), vehicle: saline + alcohol) 112 % of control; (dose: 1.5 micrograms/kg/injection, schedule: Q01DX009 (ip), vehicle: saline + alcohol) 103 % of control; (dose: 2.5 micrograms/kg/injection, schedule: Q01DX009 (ip), vehicle: saline + alcohol) 109 % of control; (dose: 3.1 micrograms/kg/injection, schedule: Q01DX009 (ip), vehicle: saline + alcohol) 106 % of control; (dose: 5.0 micrograms/kg/injection, schedule: Q01DX009 (ip), vehicle: saline + alcohol) 112 % of control. Moreover, the T/C was 96 % of control (dose: 10.0 micrograms/kg/injection, schedule: Q01DX009 (ip), vehicle: saline + alcohol); 154 % of control (dose: 12.5 micrograms/kg/injection, schedule: Q01DX009 (ip), vehicle: saline + alcohol); 116 % of control (dose: 20.0 micrograms/kg/injection, schedule: Q01DX009 (ip), vehicle: saline + alcohol); 168 % of control (dose: 25.0 micrograms/kg/injection, schedule: Q01DX009 (ip), vehicle: saline + alcohol); 183 % of control (dose: 50.0 micrograms/kg/injection, schedule: Q01DX009 (ip), vehicle: saline + alcohol); 116 % of control (dose: 80.0 micrograms/kg/injection, schedule: Q01DX009 (ip), vehicle: saline + alcohol).
As to `N#Cc1ccc(N)c(CSc2ccccc2)c1`, the T/C was 93 % of control (dose: 50.0 mg/kg/injection, schedule: Q04DX002 (ip), vehicle: saline with Tween-80); 90 % of control (dose: 100.0 mg/kg/injection, schedule: Q04DX002 (ip), vehicle: saline with Tween-80); 99 % of control (dose: 200.0 mg/kg/injection, schedule: Q04DX002 (ip), vehicle: saline with Tween-80).
For `CCCN1CSC(=S)N(CCC)C1`, the T/C is 100 % of control under setting [10] and 170 % of control under setting [11].
Regarding `CCOC(=O)C1C(=O)NC(=O)CC1C` (centres undefined), the T/C was 99 % of control under setting [4]; 96 % of control under setting [5]; 101 % of control under setting [6]; 99 % of control under setting [7]; 105 % of control under setting [8]; 107 % of control under setting [9].
Consider `CCCCCCCCC(C(O)c1ccccc1)C(O)(C(F)(F)F)C(F)(F)F` (centres undefined), for which the T/C by setting is: (dose: 100.0 mg/kg/injection, schedule: Q04DX003 (ip), vehicle: other) 90 % of control; (dose: 200.0 mg/kg/injection, schedule: Q04DX003 (ip), vehicle: other) 95 % of control; (dose: 400.0 mg/kg/injection, schedule: Q04DX003 (ip), vehicle: other) 115 % of control.
Take `CS(=O)(=O)OCCC(=O)NCNC(=O)CCOS(C)(=O)=O`: the T/C is, setting by setting: (dose: 9.0 mg/kg/injection, schedule: Q04DX003 (ip), vehicle: Klucel (hydroxypropylcellulose) (HPC)) 100 % of control; (dose: 12.0 mg/kg/injection, schedule: Q04DX003 (ip), vehicle: Klucel (hydroxypropylcellulose) (HPC)) 113 % of control; (dose: 12.5 mg/kg/injection, schedule: Q01DX009 (ip), vehicle: Klucel (hydroxypropylcellulose) (HPC)) 150 % of control; (dose: 13.0 mg/kg/injection, schedule: Q04DX003 (ip), vehicle: Klucel (hydroxypropylcellulose) (HPC)) 113 % of control; (dose: 22.0 mg/kg/injection, schedule: Q01DX009 (ip), vehicle: Klucel (hydroxypropylcellulose) (HPC)) 156 % of control; (dose: 25.0 mg/kg/injection, schedule: Q01DX009 (ip), vehicle: Klucel (hydroxypropylcellulose) (HPC)) 172 % of control. Further, the T/C is 163 % of control (dose: 25.0 mg/kg/injection, schedule: Q04DX003 (ip), vehicle: Klucel (hydroxypropylcellulose) (HPC)); 176 % of control (dose: 33.0 mg/kg/injection, schedule: Q01DX009 (ip), vehicle: Klucel (hydroxypropylcellulose) (HPC)); 155 % of control and 171 % of control (dose: 33.0 mg/kg/injection, schedule: Q04DX003 (ip), vehicle: Klucel (hydroxypropylcellulose) (HPC)); 168 % of control and 218 % of control under setting [10]; 181 % of control and 185 % of control and 195 % of control (dose: 50.0 mg/kg/injection, schedule: Q04DX003 (ip), vehicle: Klucel (hydroxypropylcellulose) (HPC)); 124 % of control (dose: 75.0 mg/kg/injection, schedule: Q01DX009 (ip), vehicle: Klucel (hydroxypropylcellulose) (HPC)). In addition, the T/C (dose: 75.0 mg/kg/injection, schedule: Q04DX003 (ip), vehicle: Klucel (hydroxypropylcellulose) (HPC)) was 190 % of control and 214 % of control.
`CCOC(=O)C1=C(O)c2c(sc(C)c2C)N(S(=O)(=O)c2ccc(C)cc2)CC1`: the T/C under setting [12] is 90 % of control; the T/C under setting [13] is 113 % of control; the T/C under setting [14] was 91 % of control; the T/C under setting [4] was 104 % of control; the T/C under setting [5] was 91 % of control; the T/C under setting [6] is 109 % of control. Also, the T/C under setting [7] was 91 % of control and the T/C under setting [9] was 100 % of control.
As to `Cc1nnc2n1N=C(c1ccc(-c3ccccc3)cc1)CS2`, the T/C under setting [5] is 104 % of control, the T/C under setting [7] is 92 % of control and the T/C under setting [9] is 93 % of control.
